In patent US9035057B2, “Dihydroethidine analogues and uses thereof” (Washington University, priority 2009, dated 2015):

What was measured:
[1] = Selective reactivity with superoxide generated by xanthine oxidase/hypoxanthine, absence or presence of SOD; assay type: biochemical; settings: for specificity for superoxide: FIG. 3, change in fluorescent units from baseline; for specificity for superoxide, comparison among compounds: levels of hydroxyl radical very supraphysiological; for oxidation by superoxide / effect of SOD on oxidation by superoxide: xanthine oxidase/hypoxanthine; for oxidation by superoxide: absence of SOD, DHE concentration double that of the WC compounds; for effect of SOD on oxidation by superoxide: presence of SOD
Description: (§1) This example illustrates a comparison of compounds for selective reactivity with superoxide radical. In these experiments, compounds WC-63, WC-77 and WC-81 were exposed to superoxide generated by xanthine oxidase/hypoxanthine in the absence or presence SOD, and were evaluated similarly as compound C1 in Example 10. The concentration of DHE for all experiments was double that of compounds WC-63, WC-77 and WC-81. […] All of the compounds were also exposed to H202 in the presence of horseradish peroxidase (HRP) to generate hydroxyl radical.

[2] = Exposure to H202 alone, fluorescence; assay type: biochemical
Description: as §1

[3] = Exposure to H202 in the presence of horseradish peroxidase (HRP), fluorescence; assay type: biochemical; settings: H202 with HRP, supraphysiologic levels
Description: as §1

[4] = Tissue uptake of the tracers, fluorescence lifetime imaging; assay type: in vivo, mice; settings: FIG. 8
Description: This example illustrates tissue uptake of the tracers. In these experiments, tracer lifetimes in mice were studied by fluorescence imaging of DHE and compounds WC-63, WC-77 and WC-81.

[5] = In vivo oxidation in brains of ketamine-pretreated mice, confocal microscopy; settings: for detection of superoxide produced by ketamine treatment (fluorescence of oxidized form in mouse brain): ketamine pretreatment
Description: In these experiments, mice were pretreated for several days with subanesthetic doses of ketamine, which produces a large increase in neuronal superoxide generation (Behrens et al, 2007). The mice were injected with 27 mg/kg of compound C1 and sacrificed 16 hours later. Brains were sliced and imaged by confocal microscopy. The images of the brains sliced 16 hours after administration of compound C1 are depicted in FIG. 4. […] The quantitative measures of fluorescence of the oxidized forms of DHE and compound C1 in mouse brain are depicted in FIG. 5. When compound C1 was administered to transgenic mice overexpressing SOD, the increased fluorescence from the ketamine pretreatment was abolished, consistent with the SOD removal of superoxide (FIG. 5).

[6] = Kinetics of compound WC-81 in brain in vivo, eXplore Optix-MX2 fluorescence scanner; design: species or system mouse
Description: In these experiments, an anesthetized mouse was placed in an eXplore Optix™-MX2 scanner, and an initial scan was completed for background fluorescence (T=0). A single intraperitoneal injection of 50 mg/kg of compound WC-81 in 50% DMSO, 50% saline was performed, and the animal was rescanned at 10 minutes. It took approximately 5 minutes to complete the scan. The mouse was removed, allowed to recover, then re-anesthetized and rescanned at 1 hour. A similar recovery and rescan was performed at 2 hours. The mouse was pretreated with subanesthetic doses of ketamine to raise superoxide levels. Cortical (left and right) and cerebellar activity are depicted in FIG. 6.

[7] = Fluorescence from oxidation of compound WC-81 in mouse brain images; assay type: in vivo, mice; settings: FIG. 7
Description: This example illustrates fluorescence from oxidation of Compound WC-81. In these experiments, compound WC-81 was administered to mice, and images of mouse brains were then obtained (FIG. 7).

[8] = Plate reader oxidation rate of compound C1, superoxide production with hypoxanthine and xanthine oxidase (XO system); assay type: biochemical
Description: (§2) This example illustrates oxidation rates of Compound C1 under various conditions. In these experiments, fluorescence intensity of Compound C1 was evaluated in a plate reader assay, and the fluorescence intensity over time of the oxidation rate of compound C1 was evaluated. […] Excitation was done at 480 nm and emission filtering was >590 nm. The following reaction conditions were used: [table]

[9] = Plate reader oxidation of compound C1 with H202 and horseradish peroxidase; assay type: biochemical; settings: H202 1 mM, HRP 0.2 U/ml
Description: as §2

[10] = Comparative oxidation of C1 and DHE in the presence of oxidizers, single wavelength fluorescence platereader study; assay type: biochemical; settings: elevations with superoxide but not with peroxide (H202), hydroxyl radical (HO—) or peroxynitrate (ONOO—); FIG. 2
Description: This example illustrates comparative oxidation of C1 and DHE. In these experiments, fluorescence of C1 or DHE were determined in the presence of oxidizers. […] In this single wavelength fluorescence platereader study, it should be noted that the ratio of fluorescence increase in a study cannot be compared between DHE and compound C1 since their non-oxidized forms have fluorescence and the light spectra overlap to a variable degree with the oxidized forms.

[11] = Plate reader oxidation of compound C1 with peroxide; assay type: biochemical; settings: H202 1 mM
Description: as §2

Compound	specificity for superoxide [1]	specificity for superoxide, comparison among compounds [1]	oxidation by superoxide [1]	effect of SOD on oxidation by superoxide [1]	oxidation in the presence of hydroxyl radical [3]	oxidation with H202 [2]	tissue presence of tracer [4]	detection of superoxide produced by ketamine treatment (fluorescence of oxidized form in mouse brain) ([5]; FIG. 5)	further results
CCN1c2cc(N)ccc2-c2ccc(N)cc2C1c1ccccc1 (stereo not drawn) [DHE, 2,7-diamino-10-ethyl-9-phenyl-9,10-dihydrophenanthradine, reference compound]	–	–	oxidized by superoxide	fully blocked oxidation	–	–	present in the brain and organs in the chest	detected a large increase	–
CN1c2cc(N)ccc2-c2ccc(N)cc2C1c1ccc(OCCF)cc1 (stereo not drawn) [WC-81]	high specificity for superoxide	highly selective for superoxide	oxidized by superoxide	fully blocked oxidation	partial oxidation	generally no evidence of oxidation	present in the brain and organs in the chest	–	brain fluorescence levels at 120 minutes ([6]; 50 mg/kg intraperitoneal, 120 minutes): fall in levels; time by which plateau of brain fluorescence was reached ([6]; 50 mg/kg intraperitoneal, cortical and cerebellar activity): ≤ 60 min; brain penetration ([6]; single intraperitoneal injection 50 mg/kg in 50% DMSO, 50% saline, ketamine pretreated mouse, FIG. 6): penetrated the brain; stability of the product, comparison among compounds [1]: most stable and intact product; localization of fluorescence from oxidation in brain [7]: localized to cerebral microvessels and to the extracellular space around certain cortical or hippocampal neurons
CN1c2cc(N)ccc2-c2ccc(N)cc2C1c1ccccc1 (stereo not drawn) [C1]	–	–	–	–	–	–	–	detected a large increase	pattern of brain fluorescence ([5]; ketamine pretreated mice, 27 mg/kg, sacrificed 16 hours later, FIG. 4): consistent with the presence of intracellular oxidized compound C1; increased fluorescence from ketamine pretreatment in transgenic mice overexpressing SOD ([5]; transgenic mice overexpressing SOD, FIG. 5): abolished; effect of superoxide dismutase (SOD) on oxidation ([8]; XO system plus SOD 575 U/ml): completely removed; effect of catalase on oxidation ([8]; XO system plus catalase 60 U/ml): did not effect; rate of conversion by oxidation compared with DHE ([8]; data not shown): slightly faster than DHE; oxidation under superoxide production ([8]; hypoxanthine and xanthine oxidase (XO system)): oxidized rapidly; reactivity and selectivity for superoxide (fluorescence intensity over time) ([8]; plate reader, excitation 480 nm, emission >590 nm, FIG. 1): both reactivity and selectivity for superoxide; oxidation with H202 with horseradish peroxidase [9]: no oxidation; selective oxidation (fluorescence) in the presence of oxidizers [10]: selective oxidation similar to DHE; oxidation with peroxide [11]: no oxidation

Further lines, with some results ahead:

specificity for superoxide [1]	specificity for superoxide, comparison among compounds [1]	oxidation by superoxide [1]	effect of SOD on oxidation by superoxide [1]	oxidation in the presence of hydroxyl radical [3]	Compound	oxidation with H202 [2]	tissue presence of tracer [4]	detection of superoxide produced by ketamine treatment (fluorescence of oxidized form in mouse brain) ([5]; FIG. 5)	further results
high specificity for superoxide	most specific compound for superoxide	oxidized by superoxide	fully blocked oxidation	generally no evidence of oxidation	CN1c2cc(N)ccc2-c2ccc(N)cc2C1c1ccc(OCc2cn(CCF)nn2)cc1 (stereo not drawn) [WC-77]	generally no evidence of oxidation	–	–	–
high specificity for superoxide	–	oxidized by superoxide	fully blocked oxidation	generally no evidence of oxidation	COc1ccc(C2c3cc(N)ccc3-c3ccc(N)cc3N2C)cc1 (stereo not drawn) [WC-63]	generally no evidence of oxidation	present in the brain and organs in the chest	–	–
